The text below walks through data of ChEMBL document CHEMBL1158166, “DNA binding and biological studies of some novel water-soluble polymer-copper(II)-phenanthroline complexes” (2008).

Holding throughout (conditions): read-out: IZ
One assay has as its system Escherichia coli. Nature of the assay: Antibacterial activity against Escherichia coli at 1 ug/disc after 24 to 48 hrs.
The subject of another assay is Bacillus subtilis. Nature of the assay: Antibacterial activity against Bacillus subtilis at 1 ug/disc after 24 to 48 hrs.
A further assay concerns Pseudomonas aeruginosa. Nature of the assay: Antibacterial activity against Pseudomonas aeruginosa at 1 ug/disc after 24 to 48 hrs.
The next assay has as its system Staphylococcus aureus. Nature of the assay: Antibacterial activity against Staphylococcus aureus at 1 ug/disc after 24 to 48 hrs.
The next assay relates to Candida albicans. Nature of the assay: Antifungal activity against Candida albicans at 10 ug/disc after 24 to 48 hrs. It is filed as functional.

Structures are written as SMILES.

`O=C(O)c1cn(C2CC2)c2cc(N3CCNCC3)c(F)cc2c1=O` [CIPROFLOXACIN]: the zone of inhibition at 1 µg/disc amounted to 16 mm in the assay with Escherichia coli, 17 mm with Bacillus subtilis, 17 mm with Pseudomonas aeruginosa and 16 mm in the assay on Staphylococcus aureus.
Turning to `Clc1ccccc1C(c1ccccc1)(c1ccccc1)n1ccnc1` [CLOTRIMAZOLE], the zone of inhibition at 10 µg/disc in the assay with Candida albicans is 12 mm.
